This is an account of results in PubChem BioAssay (NCI).

Each structure is given as a SMILES string.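 Briefly, cells in 96-well plates were exposed to five compound concentrations for 48 h, and endpoints were estimated by linear interpolation. The concentration for 50% growth inhibition is given as GI50. At the TGI there is no net growth.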

Among the test systems are HCT-15 colon; SK-OV-3 ovarian; MDA-N; ACHN renal; SNB-19 CNS; KM12 colon; SF-539 CNS; NCI-H522 lung; SK-MEL-28 melanoma; SNB-75 CNS; IGROV1 ovarian; HL-60(TB) leukemia.
Test in all cases: NCI-60 cell line screen, 48 h

Take `C/C(=N\Nc1ccc([N+](=O)[O-])cc1[N+](=O)[O-])c1ccc2ccccc2n1`: the TGI in the experiment with HCT-15 colon is more than 100 µM; with SK-OV-3 ovarian, more than 100 µM; with MDA-N it was more than 100 µM; in the experiment with ACHN renal, more than 100 µM; with SNB-19 CNS it was 94.4 µM; in the experiment with KM12 colon, more than 100 µM. The TGI in the experiment with SF-539 CNS was more than 100 µM; in the experiment on NCI-H522 lung, 55.7 µM; with SK-MEL-28 melanoma it was more than 100 µM; with SNB-75 CNS, more than 100 µM; in the experiment on IGROV1 ovarian it was more than 100 µM.

For the compound `Cc1cc2[nH]c3c(C#N)c(-c4ccccc4)c(N=Nc4cccc(C(F)(F)F)c4)c(=O)n3c2cc1C`, the TGI with HCT-15 colon, in the experiment with SK-OV-3 ovarian, with MDA-N, in the experiment on ACHN renal, in the experiment on SNB-19 CNS and with KM12 colon was more than 100 µM each time. The TGI in the experiment on SF-539 CNS is more than 100 µM; in the experiment with NCI-H522 lung, 69.4 µM; in the experiment with SK-MEL-28 melanoma, more than 100 µM; with SNB-75 CNS, more than 100 µM; in the experiment on IGROV1 ovarian it was more than 100 µM.

As for `NC(=O)CCC(NCc1c2ccccc2[n+]([O-])c2ccccc12)C(=O)O` (stereo unspecified), the TGI in the experiment on HCT-15 colon is more than 100 µM; with SK-OV-3 ovarian it was more than 100 µM; with HL-60(TB) leukemia, 74.1 µM; in the experiment with ACHN renal it was more than 100 µM; in the experiment on SNB-19 CNS, more than 100 µM; with KM12 colon, more than 100 µM. Also, the TGI with NCI-H522 lung, with SK-MEL-28 melanoma, with SNB-75 CNS and with IGROV1 ovarian was more than 100 µM in each case.

Regarding `COc1cc(N=NN(C)C)c(C(C)c2c3cc(OC)c(OC)cc3cc[n+]2C)cc1OC` (stereo unspecified), the TGI in the experiment with HCT-15 colon is more than 100 µM; with SK-OV-3 ovarian, more than 100 µM; with MDA-N, more than 100 µM; in the experiment on ACHN renal, more than 100 µM; with SNB-19 CNS, more than 100 µM; in the experiment on KM12 colon it was 54.6 µM. The TGI was 47.3 µM in the experiment with SF-539 CNS, more than 100 µM in the experiment on SNB-75 CNS and more than 100 µM in the experiment with IGROV1 ovarian.

For `Cc1c(-c2cc3n(n2)C(c2cccs2)C(C#N)=C(c2ccccc2)N3)c(=O)n(-c2ccccc2)n1C` (stereo unspecified), the TGI in the experiment on HCT-15 colon, in the experiment with SK-OV-3 ovarian, with HL-60(TB) leukemia, with SNB-19 CNS, in the experiment on KM12 colon and in the experiment on SF-539 CNS was more than 100 µM each time. Moreover, the TGI in the experiment with NCI-H522 lung, in the experiment on SK-MEL-28 melanoma, in the experiment with SNB-75 CNS and in the experiment with IGROV1 ovarian was more than 100 µM throughout.

Take `CC(=O)[O-].CC(=O)[O-].O=C(N/N=C/c1cc(Cl)cc(Cl)c1[OH2+])c1ccncc1.[Co+2]`: the TGI with HCT-15 colon, in the experiment with SK-OV-3 ovarian, in the experiment with HL-60(TB) leukemia, with ACHN renal, in the experiment on SNB-19 CNS and with KM12 colon was more than 100 µM each time. The TGI in the experiment with SF-539 CNS, in the experiment with NCI-H522 lung, in the experiment on SK-MEL-28 melanoma, in the experiment with SNB-75 CNS and with IGROV1 ovarian was more than 100 µM throughout.

Consider `COc1ccc(Cc2nc3cc(C(F)(F)F)ccc3n2CCCN(C)C)cc1`, for which the TGI in the experiment on HCT-15 colon was 48.8 µM; with SK-OV-3 ovarian, 41.9 µM; with HL-60(TB) leukemia, 27.1 µM; in the experiment with ACHN renal, 79.9 µM; in the experiment on SNB-19 CNS, more than 100 µM; in the experiment on KM12 colon it was 30.3 µM. The TGI in the experiment on NCI-H522 lung came out at 31.8 µM; with SK-MEL-28 melanoma it was 34.6 µM; in the experiment on IGROV1 ovarian, 78.9 µM.

With `CC(=O)c1ccc(Oc2ccc(/C(C)=N\N=C(N)N)cc2)cc1`, the TGI in the experiment with HCT-15 colon worked out at 13.2 µM; in the experiment on SK-OV-3 ovarian it was 9.25 µM; in the experiment with ACHN renal it was 17.4 µM; in the experiment on SNB-19 CNS, 22.5 µM; in the experiment with SF-539 CNS, 3.48 µM; in the experiment on NCI-H522 lung, 4.04 µM. Further, the TGI in the experiment with SK-MEL-28 melanoma was 17.4 µM; with SNB-75 CNS, 5.15 µM; in the experiment on IGROV1 ovarian it was 18.2 µM.

For `C=C1c2c(cc3c(c2O)c(=O)c2ccccc2n3C)OC1(C)C`, the TGI with HCT-15 colon is more than 100 µM; in the experiment with SK-OV-3 ovarian, 97.2 µM; in the experiment with HL-60(TB) leukemia it was more than 100 µM; with ACHN renal, more than 100 µM; with SNB-19 CNS, more than 100 µM; in the experiment on SF-539 CNS, more than 100 µM. The TGI is 9.49 µM in the experiment with NCI-H522 lung, more than 100 µM with SK-MEL-28 melanoma, 42 µM in the experiment on SNB-75 CNS and more than 100 µM in the experiment with IGROV1 ovarian.

As to `CC1C(c2ccc3c(c2)OCO3)c2cc3c(cc2OC1N1CCCC1)OCO3` (stereo unspecified), the TGI in the experiment with HCT-15 colon was more than 100 µM; in the experiment on MDA-N, 52.3 µM; with ACHN renal, more than 100 µM; in the experiment on SNB-19 CNS, more than 100 µM; in the experiment with KM12 colon it was more than 100 µM; with SF-539 CNS it was 50.9 µM. The TGI in the experiment on NCI-H522 lung was 80.4 µM; in the experiment on SK-MEL-28 melanoma, more than 100 µM; in the experiment on SNB-75 CNS it was 61.7 µM; in the experiment on IGROV1 ovarian it was more than 100 µM.

In the case of `O=P(O)(O)C(CSc1ccccc1)P(=O)(O)O`, the TGI in the experiment on HCT-15 colon, in the experiment on SK-OV-3 ovarian, in the experiment with HL-60(TB) leukemia, in the experiment on SNB-19 CNS, in the experiment with KM12 colon and with SF-539 CNS was more than 100 µM in each case. For the same compound, the TGI in the experiment with NCI-H522 lung, with SK-MEL-28 melanoma, in the experiment with SNB-75 CNS and in the experiment with IGROV1 ovarian was more than 100 µM throughout.

Consider `CCc1n[nH]c(=O)n1N1C(=O)C2CC=CCC2C1=O` (stereo unspecified), for which the TGI in the experiment with HCT-15 colon, in the experiment with SK-OV-3 ovarian, with MDA-N, in the experiment with ACHN renal, in the experiment on SNB-19 CNS and with KM12 colon was more than 100 µM in each case. Further, the TGI in the experiment on SF-539 CNS, with NCI-H522 lung, in the experiment on SNB-75 CNS and with IGROV1 ovarian was more than 100 µM in each case.

Consider `CC(=O)O[C@H]1CC[C@]2(C)[C@H]3CC[C@@H]4[C@H]5[C@H](C(C)C)CC[C@]5(C(=O)OCC(CO)(CO)N=C(N)N)CC[C@@]4(C)[C@]3(C)CC[C@H]2C1(C)C`, for which the GI50 is 1.79 µM in the experiment with HCT-15 colon; 2 µM in the experiment on SK-OV-3 ovarian; 1.79 µM in the experiment on HL-60(TB) leukemia; 1.8 µM in the experiment with ACHN renal; 1.75 µM in the experiment with KM12 colon; 1.83 µM in the experiment on SF-539 CNS. Further, the GI50 is 1.6 µM in the experiment on NCI-H522 lung and 1.57 µM with SNB-75 CNS. The TGI is 3.71 µM in the experiment with HCT-15 colon; 3.96 µM with SK-OV-3 ovarian; 4.26 µM in the experiment on HL-60(TB) leukemia; 3.26 µM in the experiment with ACHN renal; 3.36 µM in the experiment with KM12 colon; 3.34 µM in the experiment with SF-539 CNS. For the same compound, the TGI is 3.16 µM in the experiment on NCI-H522 lung and 3.23 µM in the experiment on SNB-75 CNS.
